In patent US6517856B1, “Insecticide resistance assay” (priority 1998, dated 2003):

Tests used:
H. virescens = assay: Effect of Trypan Blue in diet on rate of feces production, third instars; type: in vivo, Heliothis virescens; details: no Bt, confidence interval in brackets
Procedure: The blue diet used in the feeding disruption bioassay is an agar based insect meal containing 20 mg of Trypan Blue (Direct Blue 14; Matheson Coleman & Bell, Norwood, Ohio) per 100 ml of standard artificial diet, and containing different concentrations of CryIAc (MVP, Mycogen). Larvae feeding on this colored diet produced blue feces which were easily distinguished by observation from feces derived from other food sources. Assays were conducted in 1-ounce clear plastic cups (Solo Cup Company, Urbana, Ill.; approximately […] in diameter and ¾ inches high) fitted with white cardboard tops, which are routinely used for insect rearing in the inventors' laboratories. The clear plastic allowed for the observation of blue feces without opening the container.
The rate of feces production was examined for third instars of both the Wake (Bt susceptible) and YHD2 (Bt resistant) strains of H. virescens, to examine the effects of adding Trypan Blue to the standard artificial diet (the “Blue diet”). Wake budworms produced 30.6 ([…], 27.6-33.6) fecal pellets/hour/15 larvae on regular diet, and 25.5 (22.5-28.5) fecal pellets/hour/15 larvae on Trypan Blue diet. This difference, although small, was statistically significant as indicated by a significant diet×time interaction (F=6.05; df=1,24; P=0.0215) (PROC GLM procedure, SAS 1991). (Data not shown). […]

[1] = Octanol-water partition coefficient (Kow); type: physicochemical; details: method of Leo et al. (1971), mean of 3 replicates
tobacco budworm neonates = assay: Larval feeding disruption assay for spinosad resistance; type: in vivo, Heliothis virescens; details: 1.6 μg active ingredient per ml diet, 24 h
Procedure: The Bt feeding disruption assay described above was modified to monitor spinosad resistance in tobacco budworms. Trypan Blue (Direct Blue 14, Matheson Coleman and Bell, Norwood, Ohio) was blended into artificial diet (described above) at the rate of 20 mg of dye per 100 ml diet. This diet also was formulated with 1.6 μg of spinosad active ingredient per ml diet. The spinosad was added to the diet as part of a 44.2% aqueous formulation provided to us by Dr. Clyde Sorenson (NC State University, Raleigh, N.C.). […] The blue indicator diet with spinosad was dispensed at the rate of 100 μl per well into 8-well microtitre plate strips (Nalge Nunc Int., Napersville, Ill.). The wells were sealed with strip caps (Nunc). In order to reduce condensation within the wells, caps were punctured twice with a #3 insect pin.
Hv Franklin (spinosad susceptible) and spinosad resistant (selected) neonates of the tobacco budworm were used in all assays and were added to the assay diet within 24 h of hatch. Hv Franklin has been previously shown to be representative of other field collected H. virescens strains in spinosad toxicity. Selection of our laboratory colony of tobacco budworms which were originally collected from various locations in North Carolina, with technical spinosad applied topically each generation, produced insects that were highly resistant to spinosad.
Bioassays were conducted at 27±1° C. with a 14:10 L:D cycle, and the number of blue fecal pellets produced were counted after a 24 h exposure of the neonates to the diet. Results were taken from two replicates consisting of 24 insects per replicate.

[2] = Hv spinosad selected (resistant) neonates

Question: For `Cc1cc(-c2ccc(/N=N/c3c(S(=O)(=O)O)cc4cc(S(=O)(=O)O)cc(N)c4c3O)c(C)c2)ccc1/N=N/c1c(S(=O)(=O)O)cc2cc(S(=O)(=O)O)cc(N)c2c1O` [Trypan Blue], which “rate of fecal pellet production on Trypan Blue diet” value (H. virescens; Wake third instars) is on record?
Answer: 25.5 (22.5-28.5) fecal pellets/hour/15 larvae

Question: What about the “rate of fecal pellet production on Trypan Blue diet” value (H. virescens; YHD2 third instars) of the same compound?
Answer: 34.9 (32.5-37.3) fecal pellets per hour per 15 larvae

Question: With `CC(C)CCC[C@@H](C)[C@H]1CC[C@H]2[C@@H]3CC=C4C[C@@H](O)CC[C@]4(C)[C@H]3CC[C@]12C` [cholesterol] as the compound, how does the “Octanol-water coefficient (Kow)” value [1] read?
Answer: 0.46

Question: Which “Octanol-water coefficient (Kow)” value [1] does the source give for `COC(=O)/C=C(\C)CC/C=C(\C)CC[C@H]1OC1(C)C` [juvenile hormone III] here?
Answer: 165.33

Question: With spinosad as the compound, how does the “percentage producing 3-5 pellets” value (tobacco budworm neonates; [2]) read?
Answer: 2.3%

Question: And the “percentage producing >2 fecal pellets” value (tobacco budworm neonates; [2])?
Answer: 100%

Question: And the “percentage producing 0-2 fecal pellets” value (tobacco budworm neonates; susceptible Hv Franklin neonates)?
Answer: 100%
